Test results from article PMC11181328 (Journal of Medicinal Chemistry, 2024).

Key:
[1] = test system: male Swiss Webster mice; experiment: Locomotor activity assay; type: in vivo, mouse; details: s.c., 30 min session; for average speed by time versus vehicle: Figure 6F–H
Protocol: This hypolocomotion could result in false positives in assays of evoked antinociception such as WWTI.[115] Thus, a locomotor activity assay was utilized to assess this end point in accordance with previous studies.[28] In brief, the day prior to testing, mice were placed in the open field chamber for acclimation. On the test day, they were injected with compounds 21, 23, NLF, or vehicle and immediately placed back into the open field chamber. Photo beam breaks then recorded the mouse’s locomotion over a 30 min test period.
Six open field activity chambers (Med Associates, St. Albans, VT) were used in the locomotor activity study. Each chamber is located inside a sound-attenuating cubicle (Med Associates) and is equipped with a ventilation system. The interior of the chamber consists of a 27 × 27 cm plexiglass enclosure wired with photobeam cells and connected to a computer console that monitors the activity of the animal.
The day before the experiment, mice were acclimated to the activity chambers for a period of 30 min. On the day of the experiment, mice were administered vehicle or test compound s.c., placed into the activity chambers immediately and activity was monitored and recorded for a period of 30 min.
The primary dependent measures are total (1) distance traveled (cm), (2) ambulatory counts, (3) vertical counts, and (4) average speed (cm/s) within the 30 min session. Data are shown as mean ± SEM. Data were compared using one-way or two-way ANOVA as appropriate and a significant ANOVA was followed by a Dunnet’s post hoc test as appropriate. Statistical significance was defined as p < 0.05.

[2] = target: hERG (Kv11.1) (Homo sapiens, UniProt Q12809); experiment: Automated patch-clamp hERG inhibition assay in CHO-hERG cells
Chain of hERG (Kv11.1) (Q12809 whole entry): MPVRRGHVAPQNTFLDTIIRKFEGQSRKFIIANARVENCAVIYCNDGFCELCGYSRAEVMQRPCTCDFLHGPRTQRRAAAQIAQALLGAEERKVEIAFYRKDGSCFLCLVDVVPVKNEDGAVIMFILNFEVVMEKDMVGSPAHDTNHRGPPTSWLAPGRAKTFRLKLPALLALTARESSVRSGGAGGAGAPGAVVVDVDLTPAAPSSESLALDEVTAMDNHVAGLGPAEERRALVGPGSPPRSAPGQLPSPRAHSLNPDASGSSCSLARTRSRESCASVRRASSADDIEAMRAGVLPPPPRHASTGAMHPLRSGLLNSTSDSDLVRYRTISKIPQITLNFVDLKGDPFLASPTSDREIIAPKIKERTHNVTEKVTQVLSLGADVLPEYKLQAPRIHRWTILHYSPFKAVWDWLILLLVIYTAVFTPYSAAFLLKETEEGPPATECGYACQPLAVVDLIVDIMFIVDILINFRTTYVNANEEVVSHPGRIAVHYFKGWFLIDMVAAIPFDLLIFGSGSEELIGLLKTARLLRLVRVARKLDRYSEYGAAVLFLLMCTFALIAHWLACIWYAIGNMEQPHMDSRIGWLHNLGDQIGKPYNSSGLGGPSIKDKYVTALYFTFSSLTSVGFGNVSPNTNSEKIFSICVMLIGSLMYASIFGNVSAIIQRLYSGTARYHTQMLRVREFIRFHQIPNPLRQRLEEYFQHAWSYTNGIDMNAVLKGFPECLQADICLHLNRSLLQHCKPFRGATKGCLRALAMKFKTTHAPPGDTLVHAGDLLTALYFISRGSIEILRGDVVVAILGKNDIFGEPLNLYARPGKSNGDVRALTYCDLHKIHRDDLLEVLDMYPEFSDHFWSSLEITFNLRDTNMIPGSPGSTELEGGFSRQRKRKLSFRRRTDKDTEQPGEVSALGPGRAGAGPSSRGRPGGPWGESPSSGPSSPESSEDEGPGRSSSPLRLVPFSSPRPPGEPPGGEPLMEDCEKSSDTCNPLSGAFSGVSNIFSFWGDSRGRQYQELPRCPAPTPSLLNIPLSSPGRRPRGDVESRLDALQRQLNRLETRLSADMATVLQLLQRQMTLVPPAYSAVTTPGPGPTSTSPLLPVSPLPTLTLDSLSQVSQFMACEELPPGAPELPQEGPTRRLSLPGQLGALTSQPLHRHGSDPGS

[3] = target: hERG (Homo sapiens, UniProt Q12809); experiment: as above
Chain of hERG (Q12809 whole entry): as above

SMILES	locomotor activity [1]	average speed by time versus vehicle [1]	IC50 [2] [nM]	IC50 [3] [nM]
CN(C(=O)/C=C/c1ccco1)[C@H]1CC[C@@]2(O)[C@H]3Cc4ccc(O)c5c4[C@@]2(CCN3CC2CC2)[C@H]1O5.Cl [Compound 21, 17-Cyclopropylmethyl-3,14β-dihydroxy-4,5α-epoxy-6α-[(2E)-3′-(furan-2″-yl)-N-methylprop-2-enamido]morphinan Hydrochloride]	significant decrease in vertical counts at the largest dose tested	did not result in average speeds significantly different from vehicle at any time point	2510	–
CN(C(=O)/C=C/c1ccco1)[C@@H]1CC[C@@]2(O)[C@H]3Cc4ccc(O)c5c4[C@@]2(CCN3CC2CC2)[C@H]1O5.Cl [Compound 23, 17-Cyclopropylmethyl-3,14β-dihydroxy-4,5α-epoxy-6β-[(2E)-3′-(furan-2″-yl)-N-methylprop-2-enamido]morphinan Hydrochloride]	dose-dependent decrease in locomotor activity across all end points	significantly different from vehicle	–	1090
